% of control, % of inhibition and % binding data for eight molecules are collected here from ChEMBL document CHEMBL5465560, “Selectivity Literature for EUbOPEN Chemogenomic Library” (2024).

Test [1] concerns the target Serine/threonine-protein kinase pim-3 (Homo sapiens) (UniProt Q86V86). Briefly: Selectivity interaction (ProQinase) EUB0000171b PIM3.
In test [2] the target is Serine/threonine-protein kinase PLK3 (Homo sapiens, UniProt Q9H4B4). Kind of test: Selectivity interaction (ProQinase) EUB0000171b PLK3.
Test [3] has as its target Mitogen-activated protein kinase 8 (Homo sapiens, UniProt P45983). Briefly: Selectivity interaction (KinomeScan (DiscoverX)) EUB0000655a MAPK8. Conditions: at 10 µM.
The target of test [4] is T1, Serine/threonine-protein kinase LATS2 (Homo sapiens) (UniProt Q9NRM7).
T1 sequence (whole entry): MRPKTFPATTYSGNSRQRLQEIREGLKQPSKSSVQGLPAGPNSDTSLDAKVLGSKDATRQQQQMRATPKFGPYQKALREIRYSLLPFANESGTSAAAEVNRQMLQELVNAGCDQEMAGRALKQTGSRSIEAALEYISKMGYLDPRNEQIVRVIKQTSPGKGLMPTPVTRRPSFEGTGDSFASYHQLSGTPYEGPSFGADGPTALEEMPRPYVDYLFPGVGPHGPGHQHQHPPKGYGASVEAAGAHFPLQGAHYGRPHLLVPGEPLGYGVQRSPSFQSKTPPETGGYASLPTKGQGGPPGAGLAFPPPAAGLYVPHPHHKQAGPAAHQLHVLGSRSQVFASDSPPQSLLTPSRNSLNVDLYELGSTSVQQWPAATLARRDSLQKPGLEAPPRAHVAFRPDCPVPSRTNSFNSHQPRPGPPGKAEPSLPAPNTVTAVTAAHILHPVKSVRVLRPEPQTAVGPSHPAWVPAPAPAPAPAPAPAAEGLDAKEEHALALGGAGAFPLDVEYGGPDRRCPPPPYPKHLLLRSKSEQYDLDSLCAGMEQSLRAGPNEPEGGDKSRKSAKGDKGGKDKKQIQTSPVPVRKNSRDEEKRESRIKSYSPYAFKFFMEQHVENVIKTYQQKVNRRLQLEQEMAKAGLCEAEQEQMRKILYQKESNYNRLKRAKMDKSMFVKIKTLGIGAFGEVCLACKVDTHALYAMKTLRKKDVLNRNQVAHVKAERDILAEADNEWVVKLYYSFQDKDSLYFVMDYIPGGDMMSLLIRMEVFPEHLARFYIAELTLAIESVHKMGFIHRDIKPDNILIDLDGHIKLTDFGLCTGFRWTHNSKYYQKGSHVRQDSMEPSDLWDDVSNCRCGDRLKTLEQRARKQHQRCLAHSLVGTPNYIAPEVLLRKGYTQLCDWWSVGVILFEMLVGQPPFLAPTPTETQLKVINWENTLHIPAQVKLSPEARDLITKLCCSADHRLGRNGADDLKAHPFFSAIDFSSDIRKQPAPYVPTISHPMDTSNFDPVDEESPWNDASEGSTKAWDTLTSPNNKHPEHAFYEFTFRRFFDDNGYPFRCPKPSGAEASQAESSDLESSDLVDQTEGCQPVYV
Kind of test: Selectivity interaction (KinomeScan (DiscoverX)) EUB0000695a LATS2. Conditions: at 100 nM.

Test [5] concerns the target T2, Dual specificity mitogen-activated protein kinase kinase 4 (Homo sapiens) (UniProt P45985).
T2 sequence (whole entry): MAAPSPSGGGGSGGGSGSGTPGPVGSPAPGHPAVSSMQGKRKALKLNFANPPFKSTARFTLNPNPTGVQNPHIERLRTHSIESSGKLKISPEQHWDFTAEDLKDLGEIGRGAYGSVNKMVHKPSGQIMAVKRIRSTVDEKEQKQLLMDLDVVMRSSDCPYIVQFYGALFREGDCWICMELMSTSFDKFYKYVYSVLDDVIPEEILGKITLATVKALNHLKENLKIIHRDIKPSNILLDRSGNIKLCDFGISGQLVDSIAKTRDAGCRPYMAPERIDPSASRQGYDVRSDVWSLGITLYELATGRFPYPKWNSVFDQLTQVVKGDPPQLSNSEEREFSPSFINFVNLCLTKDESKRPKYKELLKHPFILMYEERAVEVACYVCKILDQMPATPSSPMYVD
Briefly: Selectivity interaction (KinomeScan (DiscoverX)) EUB0000045b MAP2K4.

In test [6] the test system is eIF-2-alpha kinase GCN2 (Homo sapiens), Q9P2K8 [S808G]. Kind of test: Selectivity interaction (KinomeScan (DiscoverX)) EUB0000666a EIF2AK4. Conditions: at 10 µM.
Test [7] deals with T3, Protein kinase C iota type (Homo sapiens) (UniProt P41743).
T3 sequence (whole entry): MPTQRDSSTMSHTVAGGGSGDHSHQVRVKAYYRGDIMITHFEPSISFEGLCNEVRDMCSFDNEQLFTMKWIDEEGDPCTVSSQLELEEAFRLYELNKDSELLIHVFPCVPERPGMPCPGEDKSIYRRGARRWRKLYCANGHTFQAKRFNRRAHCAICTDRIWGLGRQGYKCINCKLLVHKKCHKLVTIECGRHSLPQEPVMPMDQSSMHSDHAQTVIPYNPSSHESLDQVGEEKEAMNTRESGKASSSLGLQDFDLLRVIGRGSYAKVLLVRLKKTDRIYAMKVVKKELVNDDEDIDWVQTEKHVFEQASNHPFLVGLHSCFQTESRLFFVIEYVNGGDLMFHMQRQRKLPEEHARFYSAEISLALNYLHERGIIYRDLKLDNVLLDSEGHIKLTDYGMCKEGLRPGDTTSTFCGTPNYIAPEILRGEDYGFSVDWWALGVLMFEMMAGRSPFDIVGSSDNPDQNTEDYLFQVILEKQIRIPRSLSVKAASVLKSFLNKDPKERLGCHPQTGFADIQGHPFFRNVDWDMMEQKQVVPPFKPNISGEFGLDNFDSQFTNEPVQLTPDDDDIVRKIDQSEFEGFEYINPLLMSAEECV
Briefly: Selectivity interaction (ActivX KiNativ screen (kinase selectivity in THP-1 cell lysates)) EUB0000639a PRKCI. Conditions: lysate, at 0.01 µM. The format is subcellular.

Test [8] addresses Tyrosine-protein kinase Lyn (Homo sapiens, UniProt P07948). Kind of test: Selectivity interaction (KinomeScan (DiscoverX)) EUB0000229b LYN. As to conditions: at 10 µM.
For test [9], the target named is Myosin light chain kinase 2, skeletal/cardiac muscle (Homo sapiens) (UniProt Q9H1R3). Kind of test: Selectivity interaction (KinomeScan (DiscoverX)) EUB0000618a MYLK2. As to conditions: at 10 µM.
Chain of Myosin light chain kinase 2, skeletal/cardiac muscle (Homo sapiens) (Q9H1R3 whole entry): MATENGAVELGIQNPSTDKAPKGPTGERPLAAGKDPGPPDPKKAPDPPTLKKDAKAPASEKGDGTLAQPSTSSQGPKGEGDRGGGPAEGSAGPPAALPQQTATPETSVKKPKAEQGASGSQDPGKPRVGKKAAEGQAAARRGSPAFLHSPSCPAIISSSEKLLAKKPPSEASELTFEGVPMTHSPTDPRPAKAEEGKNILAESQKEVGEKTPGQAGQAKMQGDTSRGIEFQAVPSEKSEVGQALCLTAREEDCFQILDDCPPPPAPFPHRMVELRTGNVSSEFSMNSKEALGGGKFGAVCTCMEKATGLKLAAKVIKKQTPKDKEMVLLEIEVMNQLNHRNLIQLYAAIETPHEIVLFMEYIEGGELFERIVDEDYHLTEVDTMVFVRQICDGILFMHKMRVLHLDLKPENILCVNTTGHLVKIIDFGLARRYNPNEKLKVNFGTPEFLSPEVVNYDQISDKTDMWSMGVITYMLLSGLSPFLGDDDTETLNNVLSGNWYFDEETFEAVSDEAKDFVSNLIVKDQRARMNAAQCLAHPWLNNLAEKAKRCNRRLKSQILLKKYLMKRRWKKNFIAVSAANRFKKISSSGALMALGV

Chain of Serine/threonine-protein kinase PLK3 (Q9H4B4 whole entry, looked up): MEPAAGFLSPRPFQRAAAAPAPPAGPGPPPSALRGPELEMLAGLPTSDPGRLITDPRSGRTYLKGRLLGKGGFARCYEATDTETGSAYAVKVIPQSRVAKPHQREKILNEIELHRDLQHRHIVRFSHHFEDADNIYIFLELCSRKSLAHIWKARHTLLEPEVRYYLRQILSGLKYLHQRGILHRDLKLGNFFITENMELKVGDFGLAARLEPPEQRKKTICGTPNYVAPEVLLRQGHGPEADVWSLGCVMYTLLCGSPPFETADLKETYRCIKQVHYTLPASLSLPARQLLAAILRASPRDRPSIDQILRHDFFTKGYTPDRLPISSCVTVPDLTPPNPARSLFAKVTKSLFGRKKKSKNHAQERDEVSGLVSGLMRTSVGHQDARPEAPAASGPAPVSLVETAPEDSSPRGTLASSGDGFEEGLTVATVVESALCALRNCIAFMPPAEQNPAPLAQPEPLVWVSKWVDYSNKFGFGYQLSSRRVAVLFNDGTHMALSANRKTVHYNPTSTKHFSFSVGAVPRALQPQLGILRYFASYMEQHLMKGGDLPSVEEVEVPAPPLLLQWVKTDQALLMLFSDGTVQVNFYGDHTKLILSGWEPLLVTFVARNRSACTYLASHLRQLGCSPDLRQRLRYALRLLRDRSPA
Chain of eIF-2-alpha kinase GCN2 (Homo sapiens), Q9P2K8 [S808G] (Q9P2K8 whole entry S808G): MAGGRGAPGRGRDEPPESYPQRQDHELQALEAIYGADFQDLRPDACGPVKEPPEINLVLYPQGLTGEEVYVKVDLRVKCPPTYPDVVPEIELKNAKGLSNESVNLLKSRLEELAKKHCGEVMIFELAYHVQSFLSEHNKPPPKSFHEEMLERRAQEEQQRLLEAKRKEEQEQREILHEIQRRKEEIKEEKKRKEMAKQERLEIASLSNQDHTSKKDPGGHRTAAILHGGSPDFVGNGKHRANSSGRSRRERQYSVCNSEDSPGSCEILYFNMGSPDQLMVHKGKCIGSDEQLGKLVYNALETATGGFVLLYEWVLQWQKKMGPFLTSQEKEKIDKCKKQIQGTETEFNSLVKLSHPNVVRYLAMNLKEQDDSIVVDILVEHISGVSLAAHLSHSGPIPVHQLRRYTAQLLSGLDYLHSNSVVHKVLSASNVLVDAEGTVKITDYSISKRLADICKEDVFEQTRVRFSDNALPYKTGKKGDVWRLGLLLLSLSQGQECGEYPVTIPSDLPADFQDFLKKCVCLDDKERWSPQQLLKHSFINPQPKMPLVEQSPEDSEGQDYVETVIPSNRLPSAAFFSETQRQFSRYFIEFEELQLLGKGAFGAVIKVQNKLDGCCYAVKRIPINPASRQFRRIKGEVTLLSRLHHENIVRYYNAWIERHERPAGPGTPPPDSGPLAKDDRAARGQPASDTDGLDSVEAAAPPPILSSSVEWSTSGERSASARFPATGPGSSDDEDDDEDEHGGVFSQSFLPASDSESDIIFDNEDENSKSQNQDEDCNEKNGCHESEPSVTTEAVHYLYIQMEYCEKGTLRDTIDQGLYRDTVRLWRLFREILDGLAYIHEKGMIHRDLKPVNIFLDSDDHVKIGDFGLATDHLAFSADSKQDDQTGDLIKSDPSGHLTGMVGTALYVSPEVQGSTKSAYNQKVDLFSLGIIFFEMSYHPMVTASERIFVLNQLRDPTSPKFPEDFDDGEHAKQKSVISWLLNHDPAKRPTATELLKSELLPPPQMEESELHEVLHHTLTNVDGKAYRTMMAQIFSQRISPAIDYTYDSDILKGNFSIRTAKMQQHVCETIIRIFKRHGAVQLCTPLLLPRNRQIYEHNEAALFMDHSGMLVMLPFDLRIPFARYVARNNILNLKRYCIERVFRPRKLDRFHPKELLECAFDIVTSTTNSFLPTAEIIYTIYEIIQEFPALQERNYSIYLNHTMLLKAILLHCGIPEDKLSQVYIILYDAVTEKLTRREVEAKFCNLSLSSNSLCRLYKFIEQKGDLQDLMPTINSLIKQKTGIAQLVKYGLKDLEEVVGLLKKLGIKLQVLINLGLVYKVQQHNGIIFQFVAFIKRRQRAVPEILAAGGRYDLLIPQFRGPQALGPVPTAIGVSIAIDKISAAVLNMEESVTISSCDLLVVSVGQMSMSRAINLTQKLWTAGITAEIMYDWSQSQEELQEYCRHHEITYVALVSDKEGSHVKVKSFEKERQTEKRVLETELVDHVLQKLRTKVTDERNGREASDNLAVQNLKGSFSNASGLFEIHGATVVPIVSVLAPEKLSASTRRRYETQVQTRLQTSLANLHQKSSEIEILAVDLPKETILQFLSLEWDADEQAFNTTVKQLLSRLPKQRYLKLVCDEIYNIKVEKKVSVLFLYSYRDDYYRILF
Chain of Tyrosine-protein kinase Lyn (P07948 2-512 limits assumed): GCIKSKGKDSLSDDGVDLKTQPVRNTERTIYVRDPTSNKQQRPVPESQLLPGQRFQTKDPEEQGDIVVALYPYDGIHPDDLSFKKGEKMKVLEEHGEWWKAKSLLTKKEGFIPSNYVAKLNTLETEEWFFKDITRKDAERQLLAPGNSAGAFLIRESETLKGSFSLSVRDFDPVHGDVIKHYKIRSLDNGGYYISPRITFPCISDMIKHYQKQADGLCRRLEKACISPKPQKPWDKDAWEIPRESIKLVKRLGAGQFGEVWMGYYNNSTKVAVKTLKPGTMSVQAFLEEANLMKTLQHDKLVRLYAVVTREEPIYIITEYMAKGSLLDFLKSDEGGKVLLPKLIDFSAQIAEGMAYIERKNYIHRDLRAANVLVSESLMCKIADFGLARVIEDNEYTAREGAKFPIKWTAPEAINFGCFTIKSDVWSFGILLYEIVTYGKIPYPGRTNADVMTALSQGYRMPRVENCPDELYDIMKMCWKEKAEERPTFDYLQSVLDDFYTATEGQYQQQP
Chain of Mitogen-activated protein kinase 8 (P45983 whole entry): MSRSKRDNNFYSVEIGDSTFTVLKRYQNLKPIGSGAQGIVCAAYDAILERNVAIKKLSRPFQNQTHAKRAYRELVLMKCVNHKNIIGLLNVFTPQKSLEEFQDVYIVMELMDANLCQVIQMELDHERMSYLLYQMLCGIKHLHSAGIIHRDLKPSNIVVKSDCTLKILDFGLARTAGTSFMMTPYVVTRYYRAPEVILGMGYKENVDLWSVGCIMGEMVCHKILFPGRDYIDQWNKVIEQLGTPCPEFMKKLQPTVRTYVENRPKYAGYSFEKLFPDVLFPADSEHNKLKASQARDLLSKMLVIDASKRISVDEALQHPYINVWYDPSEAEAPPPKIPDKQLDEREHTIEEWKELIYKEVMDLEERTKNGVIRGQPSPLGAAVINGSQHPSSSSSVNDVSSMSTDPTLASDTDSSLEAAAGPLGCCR

With `C=CC(=O)Nc1cccc(C(=O)Nc2ccc(Nc3cc(-c4[nH]c(SC)nc4C)ccn3)cc2)c1`, the % of control stood at 93% in test [1] (at 1 µM), 82% in [1] (at 5 µM), 103% in test [2] (at 1 µM) and 75% in test [2] (at 5 µM).

The molecule `CN(C)CCOc1ccc(-c2nc(-c3ccncc3)c(-c3ccc4c(c3)CC/C4=N\O)[nH]2)cc1` displayed a % of control in test [3] of 92%.

With `Cc1cc(F)c(C(=O)Nc2cccc(-c3nncn3C(C)C)n2)cc1-n1cnc(C2CC2)c1`, the % of control in [4] is 89%.

Regarding `C=CC(=O)Nc1cc(-n2c(=O)ccc3cnc4ccc(-c5ccc(NS(C)(=O)=O)cc5)cc4c32)ccc1C`, the figures for the % of control in test [5] (at 1 µM) and in test [5] (at 10 µM) were 100% and 4.9%, respectively.

As to `O=C(NOC[C@H](O)CO)c1ccc(F)c(F)c1Nc1ccc(I)cc1F`, the % of control in test [6] was 84%. For `CC[C@@H]1[C@H](F)C(=O)N[C@@H]1COc1nccc2cc(C(N)=O)c(OC)cc12` [ZIMLOVISERTIB], the % of inhibition in [7] was -6.4%. As for `COc1cc(N(C)c2ccnc3ccc(C(F)(F)F)cc23)cc(OC)c1OC`, the % binding in test [8] came out at 96%. In [9], `O[C@H]1CC[C@H](Nc2ncc3nc(Nc4c(F)cc(F)cc4F)n([C@H]4CCOC4)c3n2)CC1` had a % of control of 100%.
